Activity calls are given as the source filed them. The calls are words filed in the database; no cut-off is given here.
Columns and labels:
[1] = system: MV4-11; assay: Induction of apoptosis in human MV4-11 cells assessed as early apoptotic cells at 5 uM measured after 1 hrs by Annexin V-FITC/7-AAD staining based flow cytometric analysis (reference value: 2.13%); format: functional
[2] = system: MV4-11; assay: Induction of apoptosis in human MV4-11 cells assessed as early apoptotic cells at 5 uM measured after 4 hrs by Annexin V-FITC/7-AAD staining based flow cytometric analysis (reference value: 2.13%); format: functional
[3] = system: MV4-11; assay: Induction of apoptosis in human MV4-11 cells assessed as necrotic cells at 5 uM measured after 2 hrs by Annexin V-FITC/7-AAD staining based flow cytometric analysis (reference value: 0.068%); format: functional
[4] = system: MV4-11; assay: Induction of apoptosis in human MV4-11 cells assessed as necrotic cells at 5 uM measured after 4 hrs by Annexin V-FITC/7-AAD staining based flow cytometric analysis (reference value: 0.068%); format: functional
[5] = target: T1, Tyrosine-protein phosphatase non-receptor type 11 (Homo sapiens) (UniProt Q06124); assay: Inhibition of SHP2 in human MV4-11 cells assessed as reduction in Akt phosphorylation level at upto 20 uM measured after 4 hrs by Western blot analysis; format: cell-based
T1 sequence (whole entry): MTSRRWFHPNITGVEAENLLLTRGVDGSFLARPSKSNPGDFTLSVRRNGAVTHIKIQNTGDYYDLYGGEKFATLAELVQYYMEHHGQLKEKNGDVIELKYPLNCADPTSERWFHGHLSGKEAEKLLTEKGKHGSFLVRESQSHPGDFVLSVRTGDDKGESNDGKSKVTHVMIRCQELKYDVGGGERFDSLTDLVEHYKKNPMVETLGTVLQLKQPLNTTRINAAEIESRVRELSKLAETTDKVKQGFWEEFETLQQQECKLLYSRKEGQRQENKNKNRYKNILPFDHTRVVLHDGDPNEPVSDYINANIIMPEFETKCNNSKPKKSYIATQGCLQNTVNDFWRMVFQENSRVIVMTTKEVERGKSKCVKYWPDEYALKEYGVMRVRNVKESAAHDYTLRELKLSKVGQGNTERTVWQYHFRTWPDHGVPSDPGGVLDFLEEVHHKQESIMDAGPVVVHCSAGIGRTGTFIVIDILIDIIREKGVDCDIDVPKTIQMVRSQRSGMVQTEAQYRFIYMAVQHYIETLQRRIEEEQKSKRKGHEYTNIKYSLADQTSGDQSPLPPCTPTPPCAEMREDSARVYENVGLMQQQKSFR

[6] = system: MV4-11; assay: Induction of apoptosis in human MV4-11 cells assessed as early apoptotic cells at 1.25 uM measured after 4 hrs by Annexin V-FITC/7-AAD staining based flow cytometric analysis (reference value: 2.48%); format: functional
[7] = target: T1, Tyrosine-protein phosphatase non-receptor type 11 (Homo sapiens); assay: Inhibition of SHP2 in human NCI-H358 cells assessed as reduction in Erk1/2 phosphorylation level at upto 20 uM measured after 8 hrs by Western blot analysis; format: cell-based
[8] = target: T2, Tyrosine-protein phosphatase non-receptor type 11 (Homo sapiens, UniProt Q06124); assay: Inhibition of full length wild type recombinant human IRS-1 peptide activated SHP2 (1 to 525 residues) using DIPMUP as substrate preincubated for 30 mins followed by substrate addition and measured after 30 mins by fluorescence based analysis
T2 sequence (Q06124 whole entry): T1 sequence (whole entry)

[9] = system: MV4-11; assay: Induction of apoptosis in human MV4-11 cells assessed as late apoptotic cells at 5 uM measured after 4 hrs by Annexin V-FITC/7-AAD staining based flow cytometric analysis (reference value: 0.98%); format: functional
[10] = system: MV4-11; assay: Induction of apoptosis in human MV4-11 cells assessed as necrotic cells at 5 uM measured after 4 hrs by Annexin V-FITC/7-AAD staining based flow cytometric analysis (reference value: 0.041%); format: functional
[11] = system: MV4-11; assay: Induction of apoptosis in human MV4-11 cells assessed as early apoptotic cells at 5 uM measured after 4 hrs by Annexin V-FITC/7-AAD staining based flow cytometric analysis (reference value: 2.48%); format: functional
[12] = system: MV4-11; assay: Induction of apoptosis in human MV4-11 cells assessed as viable cells at 5 uM measured after 4 hrs by Annexin V-FITC/7-AAD staining based flow cytometric analysis (reference value: 96.8%); format: functional; conditions: read-out: Activity

C[C@@H]1OCC2(CCN(c3nnc(Sc4cccc(Cl)c4Cl)s3)CC2)[C@@H]1N
Activity [1]: 4.74%
Activity [2]: 10.8%
Activity [3]: 1.17%
Activity [4]: 1.38%
inhibition [5]: Active
Activity [6]: 2.04%
inhibition [7]: Active
IC50 [8]: 250 nM
Activity [9]: 7.78%
Activity [10]: 1.55%
Activity [11]: 8.42%
viability at 5 µM [12]: 80%

Source: ChEMBL document CHEMBL5620403, “Design, synthesis, activity and molecular dynamics studies of 1,3,4-thiadiazole derivatives as selective allosteric inhibitors of SHP2 for the treatment of cancer” (Eur J Med Chem, 2023)
